Source: patent EP4803630A1, “CELL FOR IDENTIFYING MAIT CELL LIGAND, AND METHOD FOR SCREENING MAIT CELL LIGAND USING SAID CELL” (The University of Osaka, priority 2023, dated 2025)
“Also recorded” adds a separate entry of the source.

How the values were obtained:
TCR of MAIT cells = assay: co-expression reporter cell assay: NFAT-GFP expression on activation of MAIT TCR; type: cell-based; settings: 37°C, 6-20 hr, GFP by flow cytometry
Source text: (§1) MAIT TCR genes and MR1 molecules genes were synthesized from mouse (Tiloy et al, J Exp Med. 1999) or human (4L4T, Protein Data Bank) and inserted into retroviral vectors (pMX-IRES-ratCD2, pMX-IRES-humanCD8), respectively. These plasmids were co-introduced into Phoenix packaging cells by using PEI MAX (Polysciences). […] MAIT TCR and MR1 co-expressing T cells (hereinafter also referred to as "co-expression reporter cells") were selected using antimouse TCRβ (H57-597), anti-human CD3 (HIT3a), and anti-human/mouse/rat MR1 (26.5) antibodies.
(§2) The validation experiment evaluated GFP expression and MR1 molecule surface expression 6 hr after stimulation of co-expression reporter cells with vehicle control, 5-OP-RU, and Ac-6-FP. GFP was evaluated by flow cytometry. MR1 molecule surface expression was represented by the MFI value of the stimulated cells.
(§3) In the above-mentioned screening, to stimulate "co-expression reporter cells," tissue extract samples and synthetic compounds were dissolved in water and added to each well of a 96-well plate in the absence of methylglyoxal. Some water-insoluble samples were dissolved in ethanol or chloroform/methanol (2:1, vol/vol) and coated onto the plates. "Co-expression reporter cells" (1-3×10^4 cells/100 µL/well) were cultured at 37°C for 6-20 hr, and the expression of GFP and MR1 molecules was analyzed by flow cytometry.

MR1 molecule = assay: co-expression reporter cell assay: MR1 surface expression by flow cytometry; type: cell-based; settings: co-expression reporter cells, 37°C, 6-20 hr, MFI by flow cytometry
Description: These plasmids were co-introduced into Phoenix packaging cells by using PEI MAX (Polysciences).
as §2, §3

[1] = tested on: MAIT TCRs derived from mouse (m); assay: reporter cell assay with mouse-derived MAIT TCR, mouse or human MR1; type: cell-based; settings: regardless of the species of the MR1 molecule
Source text: as §1
as §3, with “cytometry. The same procedure was performed in the subsequent Examples. • (2) To determine the chemical structure of the activation molecule contained in fraction #84, this fraction was further purified by hydrophilic interaction chromatography (HILIC), and a single fraction (named #84-45) was recovered. […]” for “cytometry.”

[2] = tested on: MAIT TCRs derived from human (h); assay: reporter cell assay with human-derived MAIT TCR, mouse or human MR1; type: cell-based; settings: regardless of the species of the MR1 molecule
Source text: as §1
as §3, with “cytometry. The same procedure was performed in the subsequent Examples. • (2) To determine the chemical structure of the activation molecule contained in fraction #84, this fraction was further purified by hydrophilic interaction chromatography (HILIC), and a single fraction (named #84-45) was recovered. […]” for “cytometry.”

[3] = tested on: Human peripheral blood mononuclear cells (PBMCs); assay: sc-TCR-RNA-seq analysis of stimulated PBMCs; type: cell-based; settings: PBMCs stimulated for several days; for gene expression signature (induced genes): in contrast to 5-OP-RU; for TCR expressed by surviving MAIT cells: TRAV1-2-TRAJ33/12/20:TRBV6-4/6-1/20-1
Description: Human peripheral blood mononuclear cells (PBMCs) were stimulated with CA7S and CA3S for several days, and then sc-TCR-RNA-seq analysis was performed.

[4] = tested on: MAIT cells in MR1-5-OP-RU tetramer-enriched thymocytes; assay: flow cytometry of thymic MAIT cells after administration to Sult2a-deficient mice; type: in vivo, mouse; settings: 2-4 week old Sult2a-deficient mice administered with CA7S versus not administered
Description: The expression of MAIT cells in MR1-5-OP-RU tetramer-enriched thymocytes was analyzed by flow cytometry in 2-4 week old wild-type mice, Sult2a-deficient mice administered with CA7S, and Sult2a-deficient mice not administered with CA7S.
The data were obtained from experiments using three or more mice per group. *P<0.05, **P<0.01, P***<0.005, one-way ANOVA and Tukey's multiple comparison test were used.

Row | SMILES | activation of the TCR of MAIT cells (GFP expression) (TCR of MAIT cells) | expression of MR1 molecules on the T cell surface (MR1 molecule) | further results
1 | C[C@H](CCC(=O)NCCS(=O)(=O)O)[C@H]1CC[C@H]2[C@@H]3[C@H](O)C[C@@H]4C[C@H](OS(=O)(=O)O)CC[C@]4(C)[C@H]3C[C@H](O)[C@]12C [TCA3S] | showed no activity | showed no activity | –
2 | C[C@H](CCC(=O)O)[C@H]1CC[C@H]2[C@@H]3CC[C@@H]4C[C@H](OS(=O)(=O)O)CC[C@]4(C)[C@H]3CC[C@]12C [LCA3S, litho-CA3S, reference compound] | did not show activity in reporter cells | – | –
3 | C[C@H](CCC(=O)NCCS(=O)(=O)O)[C@H]1CC[C@H]2[C@@H]3[C@H](OS(=O)(=O)O)C[C@@H]4C[C@H](O)CC[C@]4(C)[C@H]3C[C@H](O)[C@]12C [TCA7S] | showed no activity | showed no activity | –
4 | C[C@H](CCC(=O)O)[C@H]1CC[C@H]2[C@@H]3[C@H](O)C[C@@H]4C[C@H](O)CC[C@]4(C)[C@H]3C[C@H](OS(=O)(=O)O)[C@]12C [CA12S] | did not | similarly increased the expression of the MR1 molecule on the T cell surface | –
5 | C[C@H](CCC(=O)O)[C@H]1CC[C@H]2[C@@H]3[C@H](O)C[C@@H]4C[C@H](O)CC[C@]4(C)[C@H]3C[C@H](O)[C@]12C [CA, cholic acid, reference compound] | did not activate | did not activate | –
6 | C[C@H](CCC(=O)O)[C@H]1CC[C@H]2[C@@H]3[C@H](OS(=O)(=O)O)C[C@@H]4C[C@H](O)CC[C@]4(C)[C@H]3C[C@H](O)[C@]12C [CA7S, cholic acid 7-sulfate] | activated reporter cells expressing MAIT TCR; also recorded: weak agonist | similarly increased the expression of the MR1 molecule on the T cell surface | activation of MAIT TCR derived from mouse (m) [1]: activated; activation of MAIT TCR derived from human (h) [2]: activated; gene expression signature (induced genes) [3]: induced genes involved in homeostasis maintenance, such as IL7R, KLF2, and TCF7; TCR expressed by surviving MAIT cells [3]: expressed a representative MAIT TCR; MAIT cells in thymocytes [4]: restored MAIT cells
7 | C[C@H](CCC(=O)O)[C@H]1CC[C@H]2[C@@H]3CC[C@@H]4C[C@H](OS(=O)(=O)O)CC[C@]4(C)[C@H]3C[C@H](O)[C@]12C [DCA3S, deoxy-CA3S, reference compound] | did not show activity in reporter cells | – | –
8 | C[C@H](CCC(=O)O)[C@H]1CC[C@H]2[C@@H]3[C@H](O)C[C@@H]4C[C@H](OS(=O)(=O)O)CC[C@]4(C)[C@H]3C[C@H](O)[C@]12C [CA3S, cholic acid 3-sulfate] | activated MAIT reporter cells in the presence of MR1 molecules | similarly increased the expression of the MR1 molecule on the T cell surface | gene expression signature (induced genes) [3]: induced genes involved in homeostasis maintenance, such as IL7R, KLF2, and TCF7; TCR expressed by surviving MAIT cells [3]: expressed a representative MAIT TCR
9 | CC(=O)C=Nc1c(NC[C@H](O)[C@H](O)[C@H](O)CO)[nH]c(=O)[nH]c1=O [Analog 5-OP-RU, 5-(2-Oxopropylidene-amino)-6-D-ribitylaminouracil, reference compound] | dose-dependently enhanced GFP expression | – | –
10 | C[C@H](CCC(=O)NCCS(=O)(=O)O)[C@H]1CC[C@H]2[C@@H]3CC[C@@H]4C[C@H](OS(=O)(=O)O)CC[C@]4(C)[C@H]3CC[C@]12C [TLCA3S, taurolitho-CA3S, reference compound] | did not show activity in reporter cells | – | –
